{"source": "patent US20060229358A1", "about": "“Pharmaceutical composition containing flavonoids” (Taipei Medical University, priority 2005, published 2006)", "key": {"PDE4": {"tested_on": "T1, PDE4", "T1 construct": "IC50 on phosphodiesterase isozyme 4; other: mean ± S.E.M. (n)", "assay": "Inhibition of cyclic nucleotide PDE activity (Assay I), PDE4, incl. Lineweaver-Burk analysis", "type": "biochemical, guinea pig", "details": "mean ± S.E.M. (n); read-out: IC50 on phosphodiesterase isozyme 4", "method": "(§1) Under a protocol approved by the Animal Care and Use Committee of Taipei Medical University, five male guinea pigs (Hartley), weighing 500-600 g, were sacrificed. The lungs (15 g) or hearts (4 g) taken therefrom were chopped into small pieces and homogenized with a glass/teflon homogenizer (Glas-Col, Terre Haute, Ind., USA) in 10 volumes of cold medium (pH 6.5) containing 20 mM Bis-Tris, 2 mM benzamidine, 2 mM EDTA, 50 mM sodium chloride, 0.1 mM phenylmethanesulfonyl fluoride (PMSF), and 1 mM dithiothreitol. At 4° C., the homogenate was centrifuged at 170 g for 15 min, and the supernatant thereof was then re-centrifuged at 40,000 g for 30 min. […] The column was washed with two bed volumes of homogenate buffer to remove unbound material, where the resin beads therein will bind with proteins, such as PDE proteins. Proteins bound to the Q-sepharose beads were eluted with various concentrations (0.23, 0.34, 0.44, 0.69, and 1.00 M) of NaCl dissolved in homogenate buffer (for each concentration, 40-50 mL elution buffer were applied) at a flow rate of 30 ml/h. Fractions (3 ml each) were collected, and ethylene glycol (EG) was added thereto until a final concentration of 30% (v/v). And then the samples were frozen at −70° C.\n(§2) The activities of PDE1-5 in the homogenate were measured with a two-step procedure according to the method of Thompson and Appleman, using cAMP with [^3H]-cAMP or cGMP with [^3 H]-cGMP as substrates. The PDE enzyme prepared (25 μl) with 10 μl inhibitor or the solvents therefor was incubated for 30 min at 37° C. in a total assay buffer, where the final volume of the assay is amounted to 100 μl. In accordance with the features of the PDE isozymes, the assay buffer contains 50 mM Tris/HCl (pH 7.4), 3 mM MgCl2, 1 mM dithiothreitol, and 0.05% BSA, and optionally contains 1 uM cAMP with 0.2 μCi [^3H]-cAMP as a substrate alone or in the presence of 0.1 unit calmodulin with 10 μM CaCl2, or 5 μM cGMP, and 1 μM cGMP with 0.2 μCi [^3H]-cGMP as another substrate alone or in the presence of 0.1 unit calmodulin with 10 μM CaCl2.\n(§3) The PDE enzyme and the inhibitors (or their solvent) therefor were mixed and incubated on ice for 30 min previously, and then mixed with the assay buffer. The assay was initiated by transferring the mixture to a water bath at 37° C. Following the other 30 min incubation, the reaction was stopped by transferring the reaction vessel to a bath of boiling water for 3 min. After cooling on ice, 20 μl of the 1 mg/ml of Crotalus atrox venom was added to the reaction mixture, and the mixture was incubated at 37° C. for 10 min. The uncatalyzed substrates, such as cAMP, [^3H]-cAMP, cGMP, or [^3H]-cGMP were removed by the addition of 500 μl of a 1-in-1 Tris-HCl (40 mM) buffer suspension of Dowex resin (1×8-200) with incubation on ice for 30 min, since the bindings of the cyclic nucleotides and the resin. Each tube was then centrifuged for 2 min at 6000 rpm, and 100 μl of the supernatant was removed and counted by a β-counter for calculating the enzyme (PDEs) activity.\nThe dissociation constant of inhibitor binding (Ki) value was determined from the equation of apparent Km as a function of the inhibitor concentration (insert in A and B, respectively). The slope of the equation is equal to the value of […] (where KM is Michaelis constant). The amounts of the total proteins are calculated based on the analytical method reported by Bradford. In FIGS. 1A and 1B, all enzyme activities are shown as nmole of substrate per mg of proteins per minute (nmole/mg/min) hydrolyzed.\nThe IC50 values of flavonoids and various reference drugs were calculated using non-linear regression analysis by the software SigmaPlot 7.0 (Sigma Chemical, St. Louis Mo., USA)."}, "[1]": {"target": "T2, high affinity rolipram binding sites (HARBS, PDE4H)", "T2 construct": "IC50 for displacement of [3H]-rolipram from HARBS; other: 300 μM, guinea pig, preliminary experimental data; other: guinea pig whole brain particulates; over 300 μM not available due", "assay": "Binding to particulate HARBS of whole brain, displacement of [3H]-rolipram (Assay II)", "parameters": "species or system guinea pig", "details": "2 nM [3H]-rolipram, guinea pig whole brain particulates, FIG. 2; read-out: IC50 for displacement of [3H]-rolipram from HARBS", "method": "The binding experiments are carried on basis of the methods of Schneider et al. and Zhao et al. with a small modification. Under a protocol approved by the Animal Care and Use Committee of Taipei Medical University, five male guinea pigs (Hartley), weighing 500-600 g, were anesthetized. The whole brains taken therefrom were homogenized with in 10 volumes of cold medium (pH 6.5) containing 20 mM Bis-Tris, 2 mM benzamidine, 2 mM EDTA, 50 mM sodium chloride, 0.1 mM phenylmethanesulfonyl fluoride (PMSF), and 1 mM dithiothreitol. At 4° C., the homogenate was centrifuged at 170 g for 15 min for removing blood vessels and connective tissues, and the supernatant thereof was then re-centrifuged at 40,000 g for 30 min for separating the particulates from the cytosol of cells.\nAfter incubation, the reaction was stopped by transferring the reaction vessel to a bath of crashed ice. Then the reaction mixture was filtered through a punched glass fiber filter (Whatman GF/B) placed in a mini funnel, which was adopted to a 1.5 ml of Eppendorff's tube for collecting the filtrate in the mini centrifuge at 1000 rpm for 10 seconds. By the same way (centrifugation), it is further washed with 0.3 ml reaction buffer each for three times. The Whatman GF/B filter was mixed with 2 ml of cocktail and counted by the β-scintillation counter (Backman, Fullerton, Calif., USA) for counting the radioactivity thereof."}, "PDE3": {"tested_on": "PDE3", "assay": "Inhibition of cyclic nucleotide PDE activity (Assay I), PDE3", "type": "biochemical, guinea pig", "details": "mean ± S.E.M. (n); read-out: IC50 on phosphodiesterase isozyme 3", "method": "as §1, §2, §3\n(§4) The IC50 values of flavonoids and various reference drugs were calculated using non-linear regression analysis by the software SigmaPlot 7.0 (Sigma Chemical, St. Louis Mo., USA). All values are shown as the mean±S.E.M. Differences among values, which are equal or greater to three groups, were statistically calculated by one-way analysis of variance (ANOVA), and then determined by the least significant difference (LSD). The difference between two values, however, was determined by use of Student's unpaired t-test. Differences were considered statistically significant if the P-value was less than 0.05."}, "PDE2": {"target": "T3, PDE2 (Cavia porcellus, UniProt A0A286XUV5)", "T3 sequence (A0A286XUV5 22-936)": "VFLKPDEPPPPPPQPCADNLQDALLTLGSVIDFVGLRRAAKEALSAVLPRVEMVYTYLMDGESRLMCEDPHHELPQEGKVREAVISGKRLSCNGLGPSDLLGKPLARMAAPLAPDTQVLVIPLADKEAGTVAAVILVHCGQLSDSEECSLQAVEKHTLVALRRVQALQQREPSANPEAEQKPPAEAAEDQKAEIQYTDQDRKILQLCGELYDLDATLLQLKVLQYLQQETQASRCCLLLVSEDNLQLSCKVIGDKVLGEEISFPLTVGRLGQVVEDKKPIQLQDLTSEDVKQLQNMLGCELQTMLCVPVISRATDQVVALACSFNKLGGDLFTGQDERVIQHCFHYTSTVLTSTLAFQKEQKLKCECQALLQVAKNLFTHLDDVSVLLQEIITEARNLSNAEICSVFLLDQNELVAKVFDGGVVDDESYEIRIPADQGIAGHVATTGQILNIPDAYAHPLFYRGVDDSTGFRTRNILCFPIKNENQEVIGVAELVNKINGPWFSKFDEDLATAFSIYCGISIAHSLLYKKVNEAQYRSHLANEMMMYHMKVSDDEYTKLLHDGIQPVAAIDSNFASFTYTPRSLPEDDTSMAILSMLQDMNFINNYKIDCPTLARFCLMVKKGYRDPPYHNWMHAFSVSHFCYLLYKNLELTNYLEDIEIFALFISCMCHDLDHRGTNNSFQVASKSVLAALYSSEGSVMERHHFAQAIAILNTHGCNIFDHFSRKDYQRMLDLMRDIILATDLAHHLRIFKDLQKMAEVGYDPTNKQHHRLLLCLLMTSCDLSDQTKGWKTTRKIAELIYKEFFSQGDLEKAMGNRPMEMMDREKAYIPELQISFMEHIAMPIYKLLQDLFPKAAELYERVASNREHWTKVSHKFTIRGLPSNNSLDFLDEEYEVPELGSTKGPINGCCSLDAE", "assay": "Inhibition of cyclic nucleotide PDE activity (Assay I), PDE2", "type": "biochemical, guinea pig", "details": "mean ± S.E.M. (n); read-out: IC50 on phosphodiesterase isozyme 2", "method": "as §1, §2, §3, §4"}, "PDE4H (HARBS)": {"tested_on": "PDE4H (HARBS)", "details": "references [24-26]; cited from earlier work"}, "PDE1": {"tested_on": "PDE1", "assay": "Inhibition of cyclic nucleotide PDE activity (Assay I), PDE1", "type": "biochemical, guinea pig", "details": "mean ± S.E.M. (n); read-out: IC50 on phosphodiesterase isozyme 1", "method": "Under a protocol approved by the Animal Care and Use Committee of Taipei Medical University, five male guinea pigs (Hartley), weighing 500-600 g, were sacrificed. The lungs (15 g) or hearts (4 g) taken therefrom were chopped into small pieces and homogenized with a glass/teflon homogenizer (Glas-Col, Terre Haute, Ind., USA) in 10 volumes of cold medium (pH 6.5) containing 20 mM Bis-Tris, 2 mM benzamidine, 2 mM EDTA, 50 mM sodium chloride, 0.1 mM phenylmethanesulfonyl fluoride (PMSF), and 1 mM dithiothreitol. At 4° C., the homogenate was centrifuged at 170 g for 15 min, and the supernatant thereof was then re-centrifuged at 40,000 g for 30 min. The final supernatant fraction was filtered through the 0.22 μm filter and applied to a Q-sepharose fast flow column (2.2×28 cm), which is pre-washed and pre-equilibrated in homogenization buffer. The column was washed with two bed volumes of homogenate buffer to remove unbound material, where the resin beads therein will bind with proteins, such as PDE proteins. Proteins bound to the Q-sepharose beads were eluted with various concentrations (0.23, 0.34, 0.44, 0.69, and 1.00 M) of NaCl dissolved in homogenate buffer (for each concentration, 40-50 mL elution buffer were applied) at a flow rate of 30 ml/h. Fractions (3 ml each) were collected, and ethylene glycol (EG) was added thereto until a final concentration of 30% (v/v). And then the samples were frozen at −70° C. Under these conditions, the enzyme activity was stable for at least 3 months.\nIn order to eliminate possible contamination of PDE5 by PDE1, the above-collected fractions with enzyme activity was further purified on a calmodulin-agarose column. The column (1.6 cm×4 cm) was pre-equilibrated by a buffer A, which contains 20 mM Bis-tris, 1 mM dithiothreitol, 2 mM benzamidine, 50 mM NaCl, 3 mMMgCl2, 0.1 mM CaCl2, and 0.1 mM PMSF, pH 6.5. The sample (the mixture of PDE5 and PDE1), being purified by the above-mentioned column, with the CaCl2 concentration thereof adjusted to at least 2 mM previously, was loaded and allowed to be absorbed on the gel for 30 min. Then, the PDE isozymes were eluted by stepwise elution using 20 ml of buffer A with 1 M NaCl followed by 20 ml of buffer A with 1 M NaCl and with 1 mM EGTA. PDE5 was collected first followed by PDE1.\nas §2, with “CaCl2. In assay of enzyme inhibition, the assay mixture contained with the inhibitors at various concentrations of flavonoids in the Table 1 or the selective PDE1-5 inhibitors as reference drugs. For example, the selective PDE1-5 inhibitors are vinpocetin [30], EHNA [31], milrinone, Ro 20-1724 [33], and zaprinast, respectively.” for “CaCl2.”\nThe PDE enzyme and the inhibitors (or their solvent) therefor were mixed and incubated on ice for 30 min previously, and then mixed with the assay buffer. The assay was initiated by transferring the mixture to a water bath at 37° C. Following the other 30 min incubation, the reaction was stopped by transferring the reaction vessel to a bath of boiling water for 3 min. After cooling on ice, 20 μl of the 1 mg/ml of Crotalus atrox venom was added to the reaction mixture, and the mixture was incubated at 37° C. for 10 min. […]"}}}
{"smiles": "CCCCOc1cc(CC2CNC(=O)N2)ccc1OC", "note": "(centres unmarked) [Ro 20-1724, reference compound]", "values": [{"measurement": "IC50", "setting": "PDE4", "value": "11.4 ± 1.6", "unit": "µM"}, {"measurement": "IC50", "setting": "[1]", "value": 0.0673, "unit": "µM"}]}
{"smiles": "COc1c(-c2ccc(OC(C)=O)c(OC(C)=O)c2)oc2cc(OC(C)=O)cc(OC(C)=O)c2c1=O", "note": "[QMPA, Quercetin 3-O-methyl peracetate]", "values": [{"measurement": "IC50", "setting": "[1]", "value": 8.7, "unit": "µM"}]}
{"smiles": "Cc1[nH]c(=O)c(C#N)cc1-c1ccncc1", "note": "[milrinone, reference compound]", "values": [{"measurement": "IC50", "setting": "PDE3", "value": "2.4 ± 0.5", "unit": "µM"}]}
{"smiles": "CCCCCC[C@@H]([C@@H](C)O)n1cnc2c(N)ncnc21", "note": "(racemic) [EHNA, erythro-9-(2-hydroxy-3-nonyl)adenine, reference compound]", "values": [{"measurement": "IC50", "setting": "PDE2", "value": "4.4 ± 1", "unit": "µM"}]}
{"smiles": "COc1ccc([C@]2(C#N)CC[C@@H](C(=O)O)CC2)cc1OC1CCCC1", "note": "[cilomilast]", "values": [{"measurement": "PDE4H/PDE4L ratio", "setting": "PDE4H (HARBS)", "value": "about 1"}]}
{"smiles": "COc1ccc(-c2cc(=O)c3c(O)cc(O)cc3o2)cc1O", "note": "[Diosmetin]", "values": [{"measurement": "IC50", "setting": "PDE1", "value": "14.4 ± 6.2", "unit": "µM"}, {"measurement": "IC50", "setting": "PDE3", "value": "> 100", "unit": "µM"}]}
{"smiles": "O=C(Nc1c(Cl)cncc1Cl)c1ccc(OC(F)F)c(OCC2CC2)c1", "note": "[roflumilast]", "values": [{"measurement": "PDE4H/PDE4L ratio", "setting": "PDE4H (HARBS)", "value": 3}]}
{"smiles": "CCOC(=O)C1=C[C@]2(CC)CCCN3CCc4c(n1c1ccccc41)[C@@H]32", "note": "[vinpocetine, reference compound]", "values": [{"measurement": "IC50", "setting": "PDE1", "value": "123 ± 44.9", "unit": "µM"}]}
{"smiles": "COc1ccc(C2CC(=O)c3c(OC(C)=O)cc(OC(C)=O)cc3O2)cc1OC(C)=O", "note": "(centres unmarked) [HTA, hesperetin triacetate]", "values": [{"measurement": "IC50", "setting": "[1]", "value": "> 300", "unit": "µM"}]}
